The values that follow come from patent US8686113B2 (priority 2009, dated 2014).

Assay [1] concerns E. coli BL21 A1. The assay is classed as cell-based, Escherichia coli. To be noted: BL21, 20 h. The method, then: (§1) The minimum inhibitory concentrations (MIC) of the antimicrobial peptides and peptide derivatives were determined in microdilution assays. These used a continuous peptide dilution in sterile flat-bottomed 96-well microtiter plates (polystyrene, Greiner Bio-One GmbH, Frickenhausen, Germany) and a total volume of 100 μL per well. The aqueous peptide or peptidomimetic solutions were diluted with 1% TSB water, to obtain a final concentration of 256 μg/mL. 50 μL of the peptide or peptidomimetic solution was pipetted into the first well of each series and stirred. From this solution, 50 μL was transferred to the second well, stirred and again 50 μL was transferred to the next well, and so on. A double dilution series is obtained, beginning at 256 μg/mL in the first well to 125 ng/mL in the twelfth well. The bacteria, e.g. E. coli BL21 A1, were cultured overnight at 37° C. in nutrient broth (NB, Carl Roth GmbH+Co. KG, Karlsruhe, Germany). 50 μL of a 5×10^6 bacteria/mL suspension in 1% TSB was added to each well of the microtiter plate and thus a final concentration of the peptides or peptidomimetics from 128 μg/mL (well 1) to 62.5 ng/mL (well 12) was established in each series. The plates were incubated at 37° C. for 20 h and then the absorption was measured at 595 nm with a TECAN microtiter plate spectrophotometer (Tecan Trading AG, Mannedorf, Switzerland). The MIC values of all peptides and peptidomimetics were determined in triplicate. Sterile water was used as negative control. The MIC value represents the lowest peptide concentration at which no bacterial growth is observed after an incubation time of 20 h at 37° C.
(§2) The MIC values of the peptides and peptide derivatives against Escherichia coli BL21 A1 and Micrococcus luteus ATCC 10240 are given in Table 7.

The test system of assay [2] is M. luteus 10240. Nature of the assay: Growth inhibition assay (microdilution MIC). It counts as cell-based, Micrococcus luteus. To be noted: 10240, 20 h. The method, then: as §1, §2
(In general: Dilution methods test growth across graded concentrations, often in twofold steps.)

In brackets after ≈: the same amount, converted by molar mass. Non-standard residues stand in square brackets, D forms with d. Residues, ends and D or L forms follow the SMILES beside them. *: point of attachment. Arg(NO2) = N=C(NCCC[C@H](N)C(=O)O)N[N+](=O)[O-]; hArg = N=C(N)NCCCC[C@H](N)C(=O)O; Agp = N=C(N)NC[C@H](N)C(=O)O; dOrn = NCCC[C@@H](N)C(=O)O; Orn = NCCC[C@H](N)C(=O)O; For = O=C* A value given as a limit tells only on which side of the number the result lay.

For `CC[C@H](C)[C@H](NC(=O)[C@H](CCCNC(=N)N)NC(=O)[C@H](CCCNC(=N)N)NC(=O)[C@@H]1CCCN1C(=O)[C@@H]1CCCN1C(=O)[C@H](CCCNC(=N)N)NC(=O)[C@@H]1CCCN1C(=O)[C@H](CCCNC(=N)N)NC(=O)[C@@H]1CCCN1C(=O)[C@H](CC(C)C)NC(=O)[C@H](Cc1ccc(O)cc1)NC(=O)[C@@H]1CCCN1C(=O)[C@@H]1CCCN1C(=O)[C@H](CCCCN)NC(=O)[C@H](CC(=O)O)NC(=O)[C@@H](NC=O)C(C)C)C(=O)N[C@@H](Cc1ccc(O)cc1)C(=O)N[C@@H](CC(N)=O)C(=O)N[C@@H](CCCNC(=N)N)C(=O)O` [SEQ ID NO. 81] (For-VDKPPYLPRPRPPRRIYNR-OH), the “MIC E. coli BL21 A1” value in assay [1] was found to be 128 µg/mL (≈ 52.9 µM). Besides, in assay [2], the “MIC M. luteus 10240” value turned out to be 32 µg/mL (≈ 13.2 µM).
On the same counts, the results for `CC[C@H](C)[C@H](NC(=O)[C@H](CCCNC(=N)N)NC(=O)[C@H](CCCNC(=N)N)NC(=O)[C@@H]1CCCN1C(=O)[C@@H]1CCCN1C(=O)[C@H](CCCNC(=N)N)NC(=O)[C@@H]1CCCN1C(=O)[C@H](CCCNC(=N)N)NC(=O)[C@@H]1CCCN1C(=O)[C@H](CC(C)C)NC(=O)[C@H](Cc1ccc(O)cc1)NC(=O)[C@@H]1CCCN1C(=O)[C@@H]1CCCN1C(=O)[C@H](CCCCN)NC(=O)[C@H](CC(=O)O)NC(=O)[C@@H](N)C(C)C)C(=O)N[C@@H](Cc1ccc(O)cc1)C(=O)N[C@@H](CC(N)=O)C(=O)N[C@@H](CCCNC(=N)N[N+](=O)[O-])C(N)=O` [compound 55] (H-VDKPPYLPRPRPPRRIYN[Arg(NO2)]-NH2) are 8 µg/mL (≈ 3.29 µM) and 16 µg/mL (≈ 6.57 µM).
With H-VDKPPYLPRPRAPRRIYNR-NH2 [compound 40], in assay [1], the “MIC E. coli BL21 A1” value was found to be 16 µg/mL. The “MIC M. luteus 10240” value in assay [2] came to 8 µg/mL.
On the same counts, the results for H-VDKPPYLPRPHPPRRIYNNR-OH [compound 8] are 64 µg/mL and 32 µg/mL.
On the same counts, the results for H-VDKPPYLPAPRPPRRIYNR-NH2 [compound 37] are 32 µg/mL and 32 µg/mL.
Turning to H-VDAPPYLPRPRPPRRIYNR-NH2 [compound 31], in assay [1], the “MIC E. coli BL21 A1” value came out at 64 µg/mL. Moreover, the “MIC M. luteus 10240” value in assay [2] was found to be 32 µg/mL.
Take `CC[C@H](C)[C@H](NC(=O)[C@H](Cc1ccc(O)cc1)NC(=O)[C@H](CC(N)=O)NC(=O)[C@@H](N)CCCN)C(=O)N[C@@H](CCCN)C(=O)N[C@@H](CCCNC(=N)N)C(=O)N1CCC[C@H]1C(=O)N1CCC[C@H]1C(=O)N[C@@H](CCCNC(=N)N)C(=O)N1CCC[C@H]1C(=O)N[C@@H](CCCNC(=N)N)C(=O)N1CCC[C@H]1C(=O)N[C@@H](CC(C)C)C(=O)N[C@@H](Cc1ccc(O)cc1)C(=O)N1CCC[C@H]1C(=O)N1CCC[C@H]1C(=O)N[C@@H](CCCCN)C(=O)N[C@@H](CC(=O)O)C(=O)N[C@H](C(N)=O)C(C)C` [compound 113] (H-[Orn]NYI[Orn]RPPRPRPLYPPKDV-NH2): in assay [1], the “MIC E. coli BL21 A1” value was over 256 µg/mL. The “MIC M. luteus 10240” value in assay [2] came out at 64 µg/mL (≈ 27.8 µM).
The matching figures for H-VDKPPYLARPRPPRRIYNR-NH2 [compound 36]: 32 µg/mL and 8 µg/mL.
On the same counts, the results for H-VDKPPYLPRPRPPRRIYQR-NH2 [compound 79] are 8 µg/mL and 8 µg/mL.
On to `CC[C@H](C)[C@H](NC(=O)[C@H](CCCN)NC(=O)[C@H](CCCNC(=N)N)NC(=O)[C@@H]1CCCN1C(=O)[C@@H]1CCCN1C(=O)[C@H](CCCNC(=N)N)NC(=O)[C@@H]1CCCN1C(=O)[C@H](CCCNC(=N)N)NC(=O)[C@@H]1CCCN1C(=O)[C@H](CC(C)C)NC(=O)[C@H](Cc1ccc(O)cc1)NC(=O)[C@@H]1CCCN1C(=O)[C@@H]1CCCN1C(=O)[C@H](CCCCN)NC(=O)[C@H](CC(=O)O)NC(=O)[C@@H](N)C(C)C)C(=O)N[C@@H](Cc1ccc(O)cc1)C(=O)N[C@@H](CC(N)=O)C(=O)N[C@@H](CCCCNC(=N)N)C(N)=O` [compound 70] (H-VDKPPYLPRPRPPR[Orn]IYN[hArg]-NH2), for which, in assay [1], the “MIC E. coli BL21 A1” value is 4 µg/mL (≈ 1.69 µM). In assay [2], the “MIC M. luteus 10240” value is 4 µg/mL (≈ 1.69 µM).
For H-VDRPPYLPRPRPPRRIYNR-NH2 [compound 76], the “MIC E. coli BL21 A1” value in assay [1] worked out at 16 µg/mL. For the same compound, in assay [2], the “MIC M. luteus 10240” value was determined as 8 µg/mL.
On the same counts, the results for H-VDKPPYLPRPAPPRRIYNR-NH2 [compound 39] are 64 µg/mL and 16 µg/mL.
The matching figures for H-DKPPYLPRPRPPRRIYNR-NH2 [compound 86]: 32 µg/mL and 8 µg/mL.
On the same counts, the results for H-VDKPPYLPRPRPPARIYNR-NH2 [compound 42] are 16 µg/mL and 32 µg/mL.
For H-VDKPPYLPRPNPPRRIYNR-OH [compound 11], the “MIC E. coli BL21 A1” value in assay [1] worked out at 64 µg/mL. Further, the “MIC M. luteus 10240” value in assay [2] came to 64 µg/mL.
As to H-VDKPPYLPRPRPPRRLYNR-NH2 [compound 78], the “MIC E. coli BL21 A1” value in assay [1] came out at 8 µg/mL. Moreover, in assay [2], the “MIC M. luteus 10240” value stood at 16 µg/mL.
As for H-VDKPPYLPRPRPPRRIYN-NH2 [compound 27], the “MIC E. coli BL21 A1” value in assay [1] was determined as 32 µg/mL. In addition, the “MIC M. luteus 10240” value in assay [2] turned out to be 64 µg/mL.
The matching figures for `CC[C@@H](C)[C@@H](NC(=O)[C@@H](Cc1ccc(O)cc1)NC(=O)[C@@H](CC(N)=O)NC(=O)[C@H](N)CCCN)C(=O)N[C@H](CCCN)C(=O)N[C@H](CCCNC(=N)N)C(=O)N1CCC[C@@H]1C(=O)N1CCC[C@@H]1C(=O)N[C@H](CCCNC(=N)N)C(=O)N1CCC[C@@H]1C(=O)N[C@H](CCCNC(=N)N)C(=O)N1CCC[C@@H]1C(=O)N[C@H](CC(C)C)C(=O)N[C@H](Cc1ccc(O)cc1)C(=O)N1CCC[C@@H]1C(=O)N1CCC[C@@H]1C(=O)N[C@H](CCCCN)C(=O)N[C@H](CC(=O)O)C(=O)N[C@@H](C(N)=O)C(C)C` [compound 118] (H-[dOrn][dN][dY][dI][dOrn][dR][dP][dP][dR][dP][dR][dP][dL][dY][dP][dP][dK][dD][dV]-NH2): 256 µg/mL (≈ 111 µM) and 32 µg/mL (≈ 13.9 µM).
The matching figures for H-VDKPPYLPRPKPPRRIYNR-NH2 [compound 7]: 8 µg/mL and 16 µg/mL.
On the same counts, the results for H-VDKPPYLPRARPPRRIYNR-NH2 [compound 38] are 32 µg/mL and 8 µg/mL.
For H-VDKPPYLPRPRPPRRIYAR-NH2 [compound 46], the “MIC E. coli BL21 A1” value in assay [1] came out at 8 µg/mL. The “MIC M. luteus 10240” value in assay [2] stood at 8 µg/mL.
For the compound H-VDKPPALPRPRPPRRIYNR-NH2 [compound 34], in assay [1], the “MIC E. coli BL21 A1” value was determined as 128 µg/mL. In addition, in assay [2], the “MIC M. luteus 10240” value worked out at 16 µg/mL.
On the same counts, the results for `CC[C@H](C)[C@H](NC(=O)[C@H](CNC(=N)N)NC(=O)[C@H](CCCNC(=N)N)NC(=O)[C@@H]1CCCN1C(=O)[C@@H]1CCCN1C(=O)[C@H](CCCNC(=N)N)NC(=O)[C@@H]1CCCN1C(=O)[C@H](CCCNC(=N)N)NC(=O)[C@@H]1CCCN1C(=O)[C@H](CC(C)C)NC(=O)[C@H](Cc1ccc(O)cc1)NC(=O)[C@@H]1CCCN1C(=O)[C@@H]1CCCN1C(=O)[C@H](CCCCN)NC(=O)[C@H](CC(=O)O)NC(=O)[C@@H](N)C(C)C)C(=O)N[C@@H](Cc1ccc(O)cc1)C(=O)N[C@@H](CC(N)=O)C(=O)N[C@@H](CNC(=N)N)C(N)=O` [compound 66] (H-VDKPPYLPRPRPPR[Agp]IYN[Agp]-NH2) are 8 µg/mL (≈ 3.43 µM) and 4 µg/mL (≈ 1.71 µM).
The matching figures for `CC[C@H](C)[C@H](NC(=O)[C@H](CCCNC(=N)N)NC(=O)[C@H](CCCNC(=N)N)NC(=O)[C@@H]1CCCN1C(=O)[C@@H]1CCCN1C(=O)[C@H](CCCNC(=N)N)NC(=O)[C@@H]1CCCN1C(=O)[C@H](CCCNC(=N)N)NC(=O)[C@@H]1CCCN1C(=O)[C@H](CC(C)C)NC(=O)[C@H](Cc1ccc(O)cc1)NC(=O)[C@@H]1CCCN1C(=O)[C@@H]1CCCN1C(=O)[C@H](CCCCN)NC(=O)[C@H](CC(=O)O)NC(=O)[C@@H](N)C(C)C)C(=O)N[C@@H](Cc1ccc(O)cc1)C(=O)N[C@@H](CC(N)=O)C(=O)N[C@@H](CCCCNC(=N)N)C(N)=O` [compound 57] (H-VDKPPYLPRPRPPRRIYN[hArg]-NH2): 8 µg/mL (≈ 3.33 µM) and 8 µg/mL (≈ 3.33 µM).
Take `CC[C@H](C)[C@H](NC(=O)[C@H](CCCNC(=N)N)NC(=O)[C@H](CCCNC(=N)N)NC(=O)[C@@H]1CCCN1C(=O)[C@@H]1CCCN1C(=O)[C@H](CCCNC(=N)N)NC(=O)[C@@H]1CCCN1C(=O)[C@H](CCCNC(=N)N)NC(=O)[C@@H]1CCCN1C(=O)[C@H](CC(C)C)NC(=O)[C@H](Cc1ccc(O)cc1)NC(=O)[C@@H]1CCCN1C(=O)[C@@H]1CCCN1C(=O)[C@H](CCCCN)NC(=O)[C@H](CC(=O)O)NC(=O)[C@H](CCCN)NC(=O)[C@@H](CS)NC(=O)[C@H](C)N)C(=O)N[C@@H](Cc1ccc(O)cc1)C(=O)N[C@@H](CC(N)=O)C(=O)N[C@@H](CCCNC(=N)N)C(N)=O` [compound 83] (H-A[dC][Orn]DKPPYLPRPRPPRRIYNR-NH2): the “MIC E. coli BL21 A1” value in assay [1] amounted to 16 µg/mL (≈ 6.2 µM). Further, the “MIC M. luteus 10240” value in assay [2] is 16 µg/mL (≈ 6.2 µM).
